Source: US20260103471A1, “CYCLIC UREA THIAZOLYL COMPOUNDS FOR TREATMENT OF HSV” (Assembly Biosciences, Inc., priority 2022, published 2026)
Where two headings read alike, the source gives them in different places.

Key:
HSV-1 = HSV-1 Antiviral Assay (Vero cells, cell viability); assay type: cell-based; conditions: Human alphaherpesvirus 1, 96 h, Vero cells, read-out: HSV-1 EC50
Protocol: Vero cells were cultured in Dulbecco's Modified Eagle Medium (DMVEM) supplemented with […] and 100 units/mL penicillin and streptomycin. The cells were passaged 2-3 times per week to maintain sub-confluent densities.
Vero cells were seeded into 96-well plates at a density of 2.5×10^3 cells per well and allowed to attach overnight. Following attachment, the media was replaced with 50 μL of infection medium (DMVEM supplemented with 2% fetal bovine serum and 100 units/mL penicillin and streptomycin). A Tecan D300e digital dispenser was then used to add compounds to the culture using an 8-point 3-fold serial dilution format. The DMSO concentration was normalized to 0.5% for all treatments. Following compound addition, 50 μL of infection medium containing 80 TCID50 HSV-1 was added to the cells and incubated at 37° C. for 4 days. After the incubation, the plates were equilibrated to room temperature, the media was removed, and […] a 1:1 dilution of Cell titer glow and phosphate buffered saline was added to the cells. Following a 5-minute incubation, cell viability was quantified by measuring luminance using a Tecan Infinite M1000 Pro plate reader.

HSV-2 G strain = test: HSV-2 Antiviral Assay (Vero cells, cell viability); assay type: cell-based; conditions: for EC50: Human alphaherpesvirus 2, Vero, 120 h, Vero cells, 5 days
Outline: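 Antiviral readout is survival of infected Vero cells: after 5 days at 37 °C with 160 TCID50 HSV-2 G strain plus serially diluted compound (8 points, 3-fold, 0.5% DMSO), WST-8 was added for 3 h and absorbance measured at 460/620 nm. Cells seeded at 1.0×10^4 per well.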

[1] = 80 TCID50 HSV-1, 4 days, cell viability
[2] = 160 TCID50 HSV-2 G strain, cell viability

EC50 (HSV-1; [1]) | EC50 (HSV-2 G strain; [2]) | EC50 (HSV-1; 4 days) | EC50 (HSV-2 G strain) | SMILES | fold more active than Example 314 (5-membered ring analog) (HSV-2 G strain; ratio of EC50 vs Example 314, assay not stated, HSV-2 values only)
0.1 to 1 µM | 0.1 to 1 µM |  |  | Cc1nc(N2CCCN(c3ccc(-c4cccc5[nH]cnc45)cc3)C2=O)sc1S(N)(=O)=O [Compound 74] | 
1 to 5 µM | 1 to 5 µM |  |  | Cc1nc(N2CCCN(c3ccc(-c4ccnn4C)cc3)C2=O)sc1S(N)(=O)=O [Compound 40] | 
0.1 to 1 µM | 0.1 to 1 µM |  |  | Cc1nc(N2CCCN(c3ccc(-c4cccc5c4CC(=O)N5C)cc3)C2=O)sc1S(N)(=O)=O [Compound 77] | 
< 0.1 µM | < 0.1 µM |  |  | Cc1nc(N2CCCN(c3ccc(-c4cccc5ncsc45)cc3)C2=O)sc1S(N)(=O)=O [Compound 67, 2-(3-(4-(Benzo[d]thiazol-7-yl)phenyl)-2-oxotetrahydropyrimidin-1(2H)-yl)-4-methylthiazole-5-sulfonamide] | 
< 0.1 µM | < 0.1 µM |  |  | Cc1nc(N2CCCN(c3ccc(-c4cccc5c4sc(=O)n5C)cc3)C2=O)sc1S(N)(=O)=O [Compound 79] | 
< 0.1 µM | < 0.1 µM |  |  | Cc1nc(N2CCCN(c3ccc(-c4cc(F)ccc4Cl)cc3)C2=O)sc1S(N)(=O)=O [Compound 193] | 
< 0.1 µM | < 0.1 µM |  |  | Cc1nc(N2CCCN(c3ccc(-c4nccs4)cc3)C2=O)sc1S(N)(=O)=O [Compound 42, 4-Methyl-2-(2-oxo-3-(4-(thiazol-2-yl)phenyl)tetrahydropyrimidin-1(2H)-yl) thiazole-5-sulfonamide] | 
0.1 to 1 µM | 0.1 to 1 µM |  |  | Cc1nc(N2CCCN(c3ccc(-c4cccc5c4cnn5C(C)C)cc3)C2=O)sc1S(N)(=O)=O [Compound 56] | 
< 0.1 µM | < 0.1 µM |  |  | Cc1nc(N2CCCN(c3ccc(-c4cc(F)cc(-c5cnn(C(F)F)c5)c4F)cc3)C2=O)sc1S(N)(=O)=O [Compound 228, 2-(3-(3′-(1-(difluoromethyl)-1H-pyrazol-4-yl)-2′,5′-difluoro-[1,1′-biphenyl]-4-yl)-2-oxotetrahydropyrimidin-1(2H)-yl)-4-methylthiazole-5-sulfonamide] | 
0.1 to 1 µM | 0.1 to 1 µM |  |  | Cc1nc(N2CCCN(c3ccc(-c4nc5c(F)cccc5s4)cc3)C2=O)sc1S(N)(=O)=O [Compound 90] | 
1 to 5 µM | 1 to 5 µM |  |  | Cc1nc(N2CCCN(c3ccc(-c4nc5ncccc5s4)cc3)C2=O)sc1S(N)(=O)=O [Compound 89] | 
0.1 to 1 µM | 0.1 to 1 µM |  |  | Cc1nc(N2CCCN(c3ccc(-c4nccc5ccccc45)cc3)C2=O)sc1S(N)(=O)=O [Compound 86] | 
0.1 to 1 µM | 0.1 to 1 µM |  |  | Cc1nc(N2CCCN(c3ccc(-c4cccc5cn[nH]c45)cc3)C2=O)sc1S(N)(=O)=O [Compound 54] | 
< 0.1 µM | < 0.1 µM |  |  | Cc1nc(N2CCCN(c3ccc(-c4ccccc4F)cc3)C2=O)sc1S(C)(=O)=O [Compound 164] | 
< 0.1 µM | < 0.1 µM |  |  | COc1ccccc1-c1ccc(N2CCCN(c3nc(C)c(S(N)(=O)=O)s3)C2=O)cc1 [Compound 10] | 
0.1 to 1 µM | 0.1 to 1 µM |  |  | Cc1nc(N2CCCN(c3ccc(-c4cccnc4)cc3)C2=O)sc1S(N)(=O)=O [Compound 2] | 
< 0.1 µM | < 0.1 µM |  |  | Cc1nc(N2CCCN(c3ccc(-c4cc(F)cc(F)c4F)cc3)C2=O)sc1S(N)(=O)=O [Compound 7] | 
< 0.1 µM | < 0.1 µM |  |  | Cc1nc(N2CCCN(c3ccc(-c4cccc5cnccc45)cc3)C2=O)sc1S(N)(=O)=O [Compound 85] | 

More lines, now with the values behind:

SMILES | EC50 (HSV-1; [1]) | EC50 (HSV-2 G strain; [2]) | EC50 (HSV-1; 4 days) | EC50 (HSV-2 G strain) | fold more active than Example 314 (5-membered ring analog) (HSV-2 G strain; ratio of EC50 vs Example 314, assay not stated, HSV-2 values only)
Cc1nc(N2CCCN(c3ccc(-c4ncc(C(F)(F)F)s4)cc3)C2=O)sc1S(N)(=O)=O [Compound 45] | 1 to 5 µM | 1 to 5 µM |  |  | 
Cc1nc(N2C[C@H](C)CN(c3ccc(-c4ccccc4Cl)cc3)C2=O)sc1S(N)(=O)=O (single isomer, unassigned) [Compound 322] | < 0.1 µM | < 0.1 µM |  |  | 
Cc1nc(N2CC3(CC3)CN(c3ccc(-c4cc(F)ccc4F)cc3)C2=O)sc1[S@](C)(=N)=O (single isomer, unassigned) [Compound 156] | < 0.1 µM | < 0.1 µM |  |  | 
CNS(=O)(=O)c1sc(N2CCCN(c3ccc(-c4ncccc4F)cc3)C2=O)nc1C [Compound 122] | < 0.1 µM | < 0.1 µM |  |  | 
NS(=O)(=O)c1sc(N2CCCN(c3ccc(-c4cc(F)ccc4F)cc3)C2=O)nc1Cl [Compound 171] | < 0.1 µM | < 0.1 µM |  |  | 
Cc1nc(N2CC(C(C)(C)F)CN(c3ccc(-c4cc(F)ccc4F)cc3)C2=O)sc1S(N)(=O)=O (stereo not shown) [Compound 369] | < 0.1 µM | < 0.1 µM |  |  | 
Cc1nc(N2CCCN(c3cc(F)c(-c4ccccc4)cc3F)C2=O)sc1S(N)(=O)=O [Compound 99, 2-(3-(2,5-Difluoro-[1,1′-biphenyl]-4-yl)-2-oxotetrahydropyrimidin-1(2H)-yl)-4-methylthiazole-5-sulfonamide] | < 0.1 µM | < 0.1 µM |  |  | 
Cc1nc(N2CCCN(c3ccc(-c4cc(F)ccc4F)cc3)C2=O)sc1S(=O)(=O)NCCCO [Compound 417] | < 0.1 µM | < 0.1 µM |  |  | 
Cc1nc(N2CCCN(c3ccc(-c4cc(F)cc5nsnc45)cc3)C2=O)sc1S(N)(=O)=O [Example 259] |  |  | 0.01 µM | 0.007 µM | 4 fold
Cc1nc(N2C[C@H](C)CN(c3ccc(-c4ccccc4F)cc3)C2=O)sc1S(N)(=O)=O [Compound 316] | < 0.1 µM | < 0.1 µM |  |  | 
Cc1nc(N2CCCN([C@H](C)c3cccc(-c4cc(F)ccc4F)c3)C2=O)sc1S(N)(=O)=O (single isomer, unassigned) [Compound 176] | 1 to 5 µM | 1 to 5 µM |  |  | 
Cc1nc(N2CCCN(c3ccc(-c4ccccc4F)c(F)c3)C2=O)sc1S(N)(=O)=O [Compound 95] | 0.1 to 1 µM | 0.1 to 1 µM |  |  | 
Cc1nc(N2CCCN(c3cc(F)c(-c4ccccn4)cc3F)C2=O)sc1S(N)(=O)=O [Compound 98] | < 0.1 µM | < 0.1 µM |  |  | 
CNS(=O)(=O)c1sc(N2CCCN(c3ccc(-c4cc(F)ccn4)cc3)C2=O)nc1C [Compound 121] | < 0.1 µM | < 0.1 µM |  |  | 
Cc1nc(N2CC3(COC3)CN(c3ccc(-c4cc(F)cc(-c5cnn(C(F)F)c5)c4F)cc3)C2=O)sc1S(N)(=O)=O [Compound 342] | < 0.1 µM | < 0.1 µM |  |  | 
Cc1nc(N2CC3(COC3)CN(c3ccc(-c4cc(F)cc(-c5cnn(C(F)F)c5)c4F)cc3)C2=O)sc1S(C)(=O)=O [Compound 434] | < 0.1 µM | < 0.1 µM |  |  | 
Cc1nc(N2CCCN(c3cccc(-c4ccccn4)c3)C2=O)sc1S(N)(=O)=O [Compound 4] | 0.1 to 1 µM | 0.1 to 1 µM |  |  | 
Cc1nc(N2CCCN([C@@H](C)c3cccc(-c4cc(F)ccc4F)c3)C2=O)sc1S(N)(=O)=O (single isomer, unassigned) [Compound 175] | 1 to 5 µM | 1 to 5 µM |  |  | 
Cc1nc(N2CCCN(c3ccc(-c4nccs4)cc3)C2=O)sc1S(=O)(=O)NC1CC1 [Compound 127] | < 0.1 µM | < 0.1 µM |  |  | 
Cc1nc(N2C[C@H](C#N)CN(c3ccc(-c4cc(F)ccc4F)cc3)C2=O)sc1S(N)(=O)=O (single isomer, unassigned) [Compound 361] | < 0.1 µM | < 0.1 µM |  |  | 
Cc1nc(N2CC3(CC3)CN(c3ccc(-c4cc(F)ccc4F)cc3)C2=O)sc1S(N)(=O)=O [Compound 110, 2-(7-(2′,5′-Difluoro-[1,1′-biphenyl]-4-yl)-6-oxo-5,7-diazaspiro [2.5]octan-5-yl)-4-methylthiazole-5-sulfonamide] | < 0.1 µM | < 0.1 µM |  |  | 
